Test results as given in the NIST ThermoML archive (doi:10.1021/je060339m).

Details: Liquid

CCCCOC(C)=O [butyl ethanoate]
Details | mass density [kg/m3]
338.15 K, 35000 kPa | 870.1
343.15 K, 100 kPa | 829.5
343.15 K, 1000 kPa | 830.5
343.15 K, 2000 kPa | 831.7
343.15 K, 3000 kPa | 832.9
343.15 K, 3100 kPa | 833
343.15 K, 5000 kPa | 835.2
343.15 K, 10000 kPa | 840.7
343.15 K, 15000 kPa | 845.7
343.15 K, 20000 kPa | 850.5
343.15 K, 25000 kPa | 855.1
343.15 K, 30000 kPa | 860.7
343.15 K, 35000 kPa | 866.3
348.15 K, 100 kPa | 824.4
348.15 K, 1000 kPa | 825.4
348.15 K, 2000 kPa | 826.7
348.15 K, 3000 kPa | 827.9
348.15 K, 3100 kPa | 828
348.15 K, 5000 kPa | 830.5
348.15 K, 10000 kPa | 836.1
348.15 K, 15000 kPa | 841.3
348.15 K, 20000 kPa | 846.2
348.15 K, 25000 kPa | 850.9
348.15 K, 30000 kPa | 856.6
348.15 K, 35000 kPa | 862.4
353.15 K, 100 kPa | 819.3
353.15 K, 1000 kPa | 820.4
353.15 K, 2000 kPa | 821.7
353.15 K, 3000 kPa | 822.9
353.15 K, 3100 kPa | 823
353.15 K, 5000 kPa | 825.5
353.15 K, 10000 kPa | 831.3
353.15 K, 15000 kPa | 836.7
353.15 K, 20000 kPa | 841.8
353.15 K, 25000 kPa | 846.7
353.15 K, 30000 kPa | 852.5
353.15 K, 35000 kPa | 858.4
358.15 K, 100 kPa | 811.6
358.15 K, 1000 kPa | 813.2
358.15 K, 2000 kPa | 813.9
358.15 K, 3100 kPa | 815.3
358.15 K, 5000 kPa | 817.7
358.15 K, 10000 kPa | 823.6
358.15 K, 15000 kPa | 829.1
358.15 K, 20000 kPa | 835.5
363.15 K, 100 kPa | 806.1
363.15 K, 1000 kPa | 807.5
363.15 K, 2000 kPa | 808.8
363.15 K, 3000 kPa | 810.1
363.15 K, 3100 kPa | 810.3
363.15 K, 5000 kPa | 812.8
363.15 K, 10000 kPa | 819.2
363.15 K, 15000 kPa | 824.9
363.15 K, 20000 kPa | 830.4
368.15 K, 100 kPa | 800.3
368.15 K, 1000 kPa | 802.1
368.15 K, 2000 kPa | 803.6
368.15 K, 3000 kPa | 804.8
368.15 K, 3100 kPa | 805
368.15 K, 5000 kPa | 807.7
368.15 K, 10000 kPa | 814.3
368.15 K, 15000 kPa | 820.3
368.15 K, 20000 kPa | 825.9
373.15 K, 100 kPa | 795.8
373.15 K, 1000 kPa | 797.2
373.15 K, 2000 kPa | 798.7
373.15 K, 3000 kPa | 800.2
373.15 K, 3100 kPa | 800.4
373.15 K, 5000 kPa | 803.1
373.15 K, 10000 kPa | 809.9
373.15 K, 15000 kPa | 815.9
373.15 K, 20000 kPa | 821.3
378.15 K, 100 kPa | 790.4
378.15 K, 1000 kPa | 791.9
378.15 K, 2000 kPa | 793.7
378.15 K, 3000 kPa | 795.2
378.15 K, 3100 kPa | 795.4
378.15 K, 5000 kPa | 798
378.15 K, 10000 kPa | 804.7
378.15 K, 15000 kPa | 810.8
378.15 K, 20000 kPa | 817.1
383.15 K, 100 kPa | 785.2
383.15 K, 1000 kPa | 786.7
383.15 K, 2000 kPa | 788.3
383.15 K, 3000 kPa | 789.9
383.15 K, 3100 kPa | 790
383.15 K, 5000 kPa | 792.9
383.15 K, 10000 kPa | 800.1
383.15 K, 15000 kPa | 806.7
383.15 K, 20000 kPa | 812.8
388.15 K, 100 kPa | 779.9
388.15 K, 1000 kPa | 781.6
388.15 K, 2000 kPa | 783.2
388.15 K, 3000 kPa | 785.2
388.15 K, 3100 kPa | 785.4
388.15 K, 5000 kPa | 788.4
388.15 K, 10000 kPa | 795.8
388.15 K, 15000 kPa | 802.4
388.15 K, 20000 kPa | 808.6
393.15 K, 100 kPa | 775.2
393.15 K, 1000 kPa | 776.4
393.15 K, 2000 kPa | 778.1
393.15 K, 3000 kPa | 779.5
393.15 K, 3100 kPa | 779.7
393.15 K, 5000 kPa | 782.8
393.15 K, 10000 kPa | 790.6
393.15 K, 15000 kPa | 797.7
393.15 K, 20000 kPa | 804.2
